Several values for one entry are separate records, joined by “and”; a condition that tells them apart may be missing. Equal values may be shown once. Read-outs that look alike come from different tables or passages of the source.
What was measured:
[1] = test system: renal proximal tubular epithelial cells (RPTEC); experiment: Growth inhibition of normal RPTEC cells; format: cell-based, human; settings: for IC50: 72 h, read-out: IC50 RPTEC
Protocol: (§1) Cell culture. The human breast cancer cell lines SKBr3 and MDA-MB-468 were a gift from Dr. Neal Rosen (MSKCC). Cells were maintained in 1:1 mixture of DME:F12 supplemented with 2 mM glutamine, 50 units/mL penicillin, 50 […] and 10% heat inactivated fetal bovine serum (Gemini Bioproducts #100-10b) and incubated at 37° C., 5% CO2. Growth assays. Growth inhibition studies were performed using the sulforhodamine B assay as previously described.^29 In summary, experimental cultures were plated in microtiter plates (Nunc #167008). One column of wells was left without cells to serve as the blank control. Cells were allowed to attach overnight. The following day, growth medium having either drug or DMSO at twice the desired initial concentration was added to the plate in triplicate and was serially diluted at a 1:1 ratio in the microtiter plate. After 72 h of growth, the cell number in treated versus control wells was estimated after treatment with 50% trichloroacetic acid and staining with 0.4% sulforhodamine B in 1% acetic acid. […] Normal human renal proximal tubular epithelial (RPTEC) cells were purchased pre-seeded in 96-well plates (Clonetics, CC-3190). Upon receipt, cells were placed in a humidified incubator at 37° C., 5% CO2 and allowed to equilibrate for 3 h. Media was removed by suction and replaced with fresh media provided by the manufacturer. Cells were then treated with either drugs or DMSO for 72 h and the IC50 values were determined as described above.

Hsp90 heart = experiment: Hsp90 competition assay, heart homogenate; settings: for Heart/SKBr3: ratio of EC50 Hsp90 values; for EC50: read-out: EC50 Hsp90 heart, normal tissue
Protocol: (§2) Hsp90 competition assay. Fluorescence polarization measurements were performed on an Analyst AD instrument (Molecular Devices, Sunnyvale, Calif.). […] The assay buffer (HFB) contained 20 mM HEPES (K) pH 7.3, 50 mM KCl, 5 mM MgCl2, 20 mM Na2MoO4, 0.01% NP40. Before each use, 0.1 mg/mL bovine gamma globulin (BGG) (Panvera Corporation, Madison, Wis.) and 2 mM DTT (Fisher Biotech, Fair Lawn, N.J.) were freshly added. […] Cell lysates were prepared rupturing cellular membranes by freezing at −70° C. and dissolving the cellular extract in HFB with added protease and phosphotase inhibitors. Organs were harvested from a healthy mouse and homogenized in HFB. Saturation curves were recorded in which GM-BODIPY (5 nM) was treated with increasing amounts of cellular lysates.

MDA-MB-468 cells = experiment: Anti-mitotic assay (Tg-3 microtiter immunoassay); format: cell-based, human; settings: 24 h, concentration dependent increase in Tg-3 luminescence
Protocol: Anti-mitotic assay. Black, clear-bottom microtiter 96-well plates (Corning Costar #3603) were used to accommodate experimental cultures. MDA-MB-468 cells were seeded in each well at 8,000 cells per well in growth medium (100 μL), and allowed to attach overnight at 37° C. and 5% CO2. Growth medium (100 μL) with drug or vehicle (DMSO) was gently added to the wells, and the plates were incubated at 37° C. and 5% CO2 for 24 h. Wells were washed with ice-cold TBST (2×200 μL). A house vacuum source attached to an eight-channel aspirator was used to remove the liquid from the 96-well plates. Ice-cold methanol (100 μL) was added to each well, and the plate was placed at 4° C. for 5 min. Methanol was removed by suction and plates were washed with ice-cold TBST (2×200 μL). Plates were further incubated with SuperBlock® blocking buffer (Pierce #37535) (200 μL) for 2 h at RT. The Tg-3 antibody (gift of Dr. Davies, Albert Einstein College of Medicine) diluted 1:200 in SuperBlock® was placed in each well (100 μL) except the control column that was treated with control antibody (Mouse IgM, NeoMarkers, NC-1030-P). After 72 h, wells were washed with ice-cold TBST (2×200 μL). […] Un-reacted antibody was removed by washing the plates with ice-cold TBST (3×200 μL) for 5 min on a shaker. The ECLTM Western Blotting Detection Reagents 1 and 2 in 1:1 mix (100 μL) was placed in each well and the plates were read immediately in an Analyst AD plate reader (Molecular Devices). Luminescence readings were imported into SOFTmax PROR 4.3.1. Anti-mitotic activity was defined as a concentration dependent increase in luminescence readings in compound-treated wells as compared to DMSO only treated wells.

Hsp90 Brain = experiment: Hsp90 competition assay, brain homogenate; format: binding, mouse; settings: for EC50: normal tissue; for Brain/SKBr3: ratio of EC50 Hsp90 values
Protocol: as §2

Hsp90 lung = experiment: Hsp90 competition assay, lung homogenate; settings: for Lung/SKBr3: ratio of EC50 Hsp90 values; for EC50: read-out: EC50 Hsp90 lung, normal tissue
Protocol: as §2

recombinant Hsp90α = recombinant Hsp90α (Homo sapiens (Human), UniProt P07900); experiment: Hsp90 competition assay (fluorescence polarization), recombinant protein; format: binding; settings: average of 3 measurements, displacement of fluorescent GM
Protocol: Hsp90 competition assay. Fluorescence polarization measurements were performed on an Analyst AD instrument (Molecular Devices, Sunnyvale, Calif.). […] The assay buffer (HFB) contained 20 mM HEPES (K) pH 7.3, 50 mM KCl, 5 mM MgCl2, 20 mM Na2MoO4, 0.01% NP40. Before each use, 0.1 mg/mL bovine gamma globulin (BGG) (Panvera Corporation, Madison, Wis.) and 2 mM DTT (Fisher Biotech, Fair Lawn, N.J.) were freshly added. GM-BODIPY was synthesized as previously reported^23a and was dissolved in DMSO to form 10 μM solutions.

Hsp90 SKBr3 = experiment: Hsp90 competition assay, SKBr3 cell lysate; settings: read-out: EC50 Hsp90 SKBr3
Protocol: Hsp90 competition assay. Fluorescence polarization measurements were performed on an Analyst AD instrument (Molecular Devices, Sunnyvale, Calif.). […] The assay buffer (HFB) contained 20 mM HEPES (K) pH 7.3, 50 mM KCl, 5 mM MgCl2, 20 mM Na2MoO4, 0.01% NP40. Before each use, 0.1 mg/mL bovine gamma globulin (BGG) (Panvera Corporation, Madison, Wis.) and 2 mM DTT (Fisher Biotech, Fair Lawn, N.J.) were freshly added. GM-BODIPY was synthesized as previously reported^23a and was dissolved in DMSO to form 10 μM solutions. Recombinant Hsp90α was purchased from Stressgen Bioreagents (cat. No. SPP-776), (Victoria, Canada). Cell lysates were prepared rupturing cellular membranes by freezing at −70° C. and dissolving the cellular extract in HFB with added protease and phosphotase inhibitors. […] Saturation curves were recorded in which GM-BODIPY (5 nM) was treated with increasing amounts of cellular lysates.

SCLC cell lines = experiment: Cell death and apoptosis across the SCLC cell lines; format: cell-based; settings: each of the SCLC cell lines, FIGS. 6A and B
Her2 = Her2 assay (microtiter immunoassay of Her2 degradation); format: cell-based, human
Protocol: Her2 assay. SKBr3 cells were plated in black, clear-bottom microtiter plates (Corning #3603) at 3,000 cells/well in growth medium (100 μl) and allowed to attach for 24 h at 37° C. and 5% CO2. Growth medium (100 μl) with drug or vehicle (DMSO) was carefully added to the wells, and the plates were placed at 37° C. and 5% CO2. Following 24 h incubation with drugs, wells were washed with ice-cold Tris buffer saline (TBS) containing 0.1% Tween 20 (TBST) (200 μl). A house vacuum source attached to an eight-channel aspirator was used to remove the liquid from the plates. Further, methanol (100 μl at −20° C.) was added to each well, and the plate was placed at 4° C. for 10 min. Methanol was removed by washing with TBST (2×200 μl). After further incubation at RT for 2 h with SuperBlockR (Pierce 37535) (200 μl), anti-Her-2 (c-erbB-2) antibody (Zymed Laboratories #28-004) (100 μl, 1:200 in SuperBlockR) was placed in each well. The plate was incubated overnight at 4° C. For control wells, 1:200 dilution of a normal rabbit IgG (Santa Cruz #SC-2027) in SuperblockR was used. Each well was washed with TBST (2×200 μl) and incubated at RT for 2 h with an anti-rabbit HRP-linked antibody (Sigma, A-0545) (100 μl, 1:2000 in SuperBlockR). Unreacted antibody was removed by washing with TBST (3×200 μl), and the ECLTM Western blotting reagent (Amersham #RPN2106) (100 μL) was added. The plate was immediately read in an Analyst AD plate reader (Molecular Devices). Each well was scanned for 0.1 s. Readings from wells containing only control IgG and the corresponding HRP-linked secondary antibody were set as background and deducted from all measured values.

[2] = test system: SKBr3 breast cancer cells; experiment: Growth inhibition, sulforhodamine B assay; format: cell-based, human; settings: average of 3 measurements
Protocol: as §1

Solubility in PBS = format: physicochemical; settings: aqueous buffer, acid addition salt form
Protocol: Growth over 96 h was assessed.

[3] = Her2 degradation in SKBr3 cells, 24 h; average of 3 measurements
[4] = Homo sapiens, SK-BR-3; Her2 degradation in SKBr3 cells, 24 h; average of 3 measurements

| Compound | Anti-mitotic (MDA-MB-468 cells) | EC50 (Hsp90 SKBr3) [nM] | IC50 ([2]; Homo sapiens, SK-BR-3, 72 h) [µM] | EC50 (recombinant Hsp90α; read-out: EC50 Hsp90-α) [nM] | IC50 (Her2; [4]) [nM] | also measured |
| --- | --- | --- | --- | --- | --- | --- |
| C#CCCCn1c(Sc2cc3c(cc2Br)OCO3)nc2c(N)ncnc21 [Example 1, 9-(Pent-4-ynyl)-8-(6-bromo-benzo[1,3]dioxol-5-ylsulfanyl)adenine] | Yes | 20 ± 60 |  |  |  | IC50 ([1]; Homo sapiens, RPTEC): 4.1 ± 0.9 µM; Heart/SKBr3 (Hsp90 heart): 3265; EC50 (Hsp90 heart): 65.3 ± 9.9 µM; EC50 (Hsp90 Brain): 40.2 ± 25.3 µM; Brain/SKBr3 (Hsp90 Brain): 2000; Lung/SKBr3 (Hsp90 lung): 735; EC50 (Hsp90 lung): 14.7 ± 1.7 µM; EC50 (recombinant Hsp90α; EC50 Hsp90-α): 30 nM and 50.8 nM; induction of apoptosis (SCLC cell lines): induced apoptosis; IC50 (Her2; [3]): 365 ± 45 nM; IC50 (Her2; Homo sapiens, SK-BR-3, 24 h, Her2 degradation in SKBr3 cells, average of 3 measurements): 300 ± 50 nM |
| C#CCCCn1c(Cc2cc3c(cc2I)OCO3)nc2c(N)nc(F)nc21 [Example 11, 2-Fluoro-8-(6-iodo-benzo[1,3]dioxol-5-ylmethyl)-9-(pent-4-ynyl)adenine] | Yes |  | 0.09 ± 0.03 | 22.3 ± 2 | 90 ± 10 |  |
| C#CCCCn1c(Cc2cc(OC)c(OC)cc2Br)nc2c(N)nc(F)nc21 [Example 13, 2-Fluoro-8-(2-bromo-4,5-dimethoxy-benzyl)-9-(pent-4-ynyl)adenine] | No |  | 55 ± 2.3 | > 15000 | > 50000 |  |
| 9-(Pent-4-ynyl)-8-(2,4,5-trichloro-phenylsulfanyl)adenine [Example 2] |  | 90 ± 30 |  |  |  | IC50 ([1]; normal cells): 28.1 ± 2.2 µM; RPTEC/SKBr3 ([1]; ratio of growth IC50 values): 15.6; EC50 (Hsp90 Brain): 26.7 ± 7.7 µM; Brain/SKBr3 (Hsp90 Brain): 298 |
| C#CCCCn1c(Cc2cc3c(cc2Cl)OCO3)nc2c(N)nc(F)nc21 [Example 7, 2-Fluoro-8-(6-chloro-benzo[1,3]dioxol-5-ylmethyl)-9-(pent-4-ynyl)adenine] | Yes |  | 0.25 ± 0.03 | 77.2 ± 1 | 300 ± 15 |  |
| C#CCCCn1c(Cc2cc(OC)c(OC)cc2I)nc2c(N)nc(F)nc21 [Example 12, 2-Fluoro-8-(2-iodo-4,5-dimethoxy-benzyl)-9-(pent-4-ynyl)adenine] | No |  | > 50 | > 15000 | > 50000 |  |
| Nc1ncnc2nc(Sc3cc(Cl)c(Cl)cc3Cl)[nH]c12 [Example 4, 8-(2,4,5-Trichloro-phenylsulfanyl)adenine] | Yes |  | 36 ± 0.2 | 15400 ± 2200 | 47800 ± 3200 |  |
| C#CCCCn1c(Cc2cc3c(cc2Br)OCO3)nc2c(N)nc(F)nc21 [Example 6, 2-Fluoro-8-(6-bromo-benzo[1,3]dioxol-5-ylmethyl)-9-(pent-4-ynyl)adenine] | Yes | 38.8 ± 3 | 0.215 ± 0.055 | 56.5 ± 2 | 210 ± 10 | Heart/SKBr3 (Hsp90 heart): 343; EC50 (Hsp90 heart): 13.3 ± 0.21 µM; Lung/SKBr3 (Hsp90 lung): 134; EC50 (Hsp90 lung): 5.2 ± 0.21 µM |
| C#CCCCn1c(Sc2cc3c(cc2I)OCO3)nc2c(N)ncnc21 [Example 10, 8-(6-Iodo-benzo[1,3]dioxol-5-ylsulfanyl)-9-(pent-4-ynyl)adenine] | Yes | 16.1 ± 1 | 0.09 ± 0.002 |  | 100 ± 10 | Heart/SKBr3 (Hsp90 heart): 370; EC50 (Hsp90 heart): 6 ± 0.2 µM; Lung/SKBr3 (Hsp90 lung): 136; EC50 (Hsp90 lung): 2.2 ± 0.4 µM |
| C#CCCCn1c(Sc2cc(Cl)c(Cl)cc2Cl)nc2c(N)ncnc21 [Example 2, 9-(Pent-4-ynyl)-8-(2,4,5-trichloro-phenylsulfanyl)adenine] | No |  | 48.4 ± 2.5 | 8500 ± 100 | 58000 ± 1400 |  |
| COc1cc(Sc2nc3c(N)ncnc3n2CCOC(C)C)c(Cl)cc1Cl [Example 3, 9-(2-Isopropoxy-ethyl)-8-(2,4-dichloro-5-methoxy-benzenesulfanyl)adenine] | No |  |  | 5000 ± 1100 |  | IC50 ([2]; 72 h): 16.1 ± 0.7 µM; IC50 (Her2; [3]): 58300 ± 2200 nM |
| CC(C)NCCCn1c(Cc2cc3c(cc2I)OCO3)nc2c(N)nc(F)nc21 [Example 8, 2-Fluoro-8-(6-iodo-benzo[1,3]dioxol-5-ylmethyl)-9-(3-isopropylamino-propyl) adenine] | Yes |  | 0.045 ± 0.006 | 50.4 ± 4 | 80 ± 10 | solubility (Solubility in PBS): > 5 mM |
| C#CCCCn1c(Cc2cc(OC)c(OC)cc2Cl)nc2c(N)nc(F)nc21 [Example 14, 2-Fluoro-8-(2-chloro-4,5-dimethoxy-benzyl)-9-(pent-4-ynyl)adenine] | No |  | 20.6 ± 6.7 | 4600 ± 20 | 30000 ± 1000 |  |
